18 compounds from patent US9212173B2, “Pyrazole aminopyrimidine derivatives as LRRK2 modulators” (Genentech, Inc., priority 2012, dated 2015) can be followed below.

This experiment concerns the target LRRK2 (Homo sapiens (Human), UniProt Q5S007, G2019S). The experiment is described as follows: In Vitro LRRK2 Assay (LRRK2 Ki). The format is biochemical. On the procedure: In Vitro LRRK2 Lanthascreen Binding Assay
This assay was used to determine a compound's potency in inhibiting activity of LRRK2 by determining, Kiapp, IC50, or percent inhibition values.
Binding of the Alexa Fluor® “tracer” to a kinase is detected by addition of a Eu-labeled anti-GST antibody.
12 pt curve. […] Stamp 5 ul to assay plate. Final top test concentration 100 uM
In Reaction Buffer, 5 ul of DMSO (3%) was added to total and blank wells and 5 ul of Eu-labeled anti-GST antibody (6 nM) was added to blank wells. Add 5 ul LRRK2 (30 nM)/Eu-labeled anti-GST antibody (6 nM) mix to compound and total wells.
Incubate plates at room temperature for 1 hour on a plate shaker (gentle shaking). Read on Perkin Elmer EnVision reader HTRF protocol
Subtract mean background values from all data points. Calculate % of control for each test value. Plot % of control vs Compound concentration. Calculate Ki Value (xlfit curve fitting-Morrison equation). Results expressed as a Ki in μM. Equation for Ki: Y=V0*(1−((x+Ki*(1+S/Km)+Et)/(2*Et)−(((x+Ki*(1+S/Km)+Et)^2−(4*Et*x))^0.5)/(2*Et)))
This assay was used to determine a compound's potency in inhibiting activity of LRRK2 by determining, Kiapp, IC50, or percent inhibition values. In a polypropylene plate, LRRK2, fluorescently-labeled peptide substrate, ATP and test compound were incubated together. Using a LabChip 3000 (Caliper Life Sciences), after the reaction the substrate was separated by capillary electrophoresis into two populations: phosphorylated and unphosphorylated. The relative amounts of each were quantitated by fluorescence intensity. LRRK2 Ki was determined according to the equation: Y=V0*(1−((x+Ki*(1+S/Km)+Et)/(2*Et)−(((x+Ki*(1+S/Km)+Et)^2−(4*Et*x))^0.5)/(2*Et))).
Ki values in Table 4 and elsewhere herein are shown in μM.
For serial dilutions, 34.6 μl DMSO was added to columns 3-24.
In Complete Reaction Buffer, substrate was diluted to 4 μM. Equal volumes of Complete Reaction Buffer and 4 μM substrate were combined to obtain the blank. Equal volumes of Complete Reaction Buffer and 4 μM substrate were combined and to the combined solution was added 2× final LRRK2 concentration.
To a 50 μl polypropylene plate, 5 μl/well buffer/substrate was added by hand to Blank wells. A Biomek FX was used to start the kinase reaction (“PLK SAR 23 ATP”). The following were added to the appropriate wells:
The plate was incubated for 2 hours in the dark. Biomek FX was used to stop the kinase reaction (“PLK Stop”), and 10 μl/well Stop solution was added to the Assay Plate. Results were read on the LabChip 3000.
The LabChip 3000 was run using the job “LRRK2 IC50” with the following job settings: […]

LRRK2, sequence (Q5S007 whole entry G2019S): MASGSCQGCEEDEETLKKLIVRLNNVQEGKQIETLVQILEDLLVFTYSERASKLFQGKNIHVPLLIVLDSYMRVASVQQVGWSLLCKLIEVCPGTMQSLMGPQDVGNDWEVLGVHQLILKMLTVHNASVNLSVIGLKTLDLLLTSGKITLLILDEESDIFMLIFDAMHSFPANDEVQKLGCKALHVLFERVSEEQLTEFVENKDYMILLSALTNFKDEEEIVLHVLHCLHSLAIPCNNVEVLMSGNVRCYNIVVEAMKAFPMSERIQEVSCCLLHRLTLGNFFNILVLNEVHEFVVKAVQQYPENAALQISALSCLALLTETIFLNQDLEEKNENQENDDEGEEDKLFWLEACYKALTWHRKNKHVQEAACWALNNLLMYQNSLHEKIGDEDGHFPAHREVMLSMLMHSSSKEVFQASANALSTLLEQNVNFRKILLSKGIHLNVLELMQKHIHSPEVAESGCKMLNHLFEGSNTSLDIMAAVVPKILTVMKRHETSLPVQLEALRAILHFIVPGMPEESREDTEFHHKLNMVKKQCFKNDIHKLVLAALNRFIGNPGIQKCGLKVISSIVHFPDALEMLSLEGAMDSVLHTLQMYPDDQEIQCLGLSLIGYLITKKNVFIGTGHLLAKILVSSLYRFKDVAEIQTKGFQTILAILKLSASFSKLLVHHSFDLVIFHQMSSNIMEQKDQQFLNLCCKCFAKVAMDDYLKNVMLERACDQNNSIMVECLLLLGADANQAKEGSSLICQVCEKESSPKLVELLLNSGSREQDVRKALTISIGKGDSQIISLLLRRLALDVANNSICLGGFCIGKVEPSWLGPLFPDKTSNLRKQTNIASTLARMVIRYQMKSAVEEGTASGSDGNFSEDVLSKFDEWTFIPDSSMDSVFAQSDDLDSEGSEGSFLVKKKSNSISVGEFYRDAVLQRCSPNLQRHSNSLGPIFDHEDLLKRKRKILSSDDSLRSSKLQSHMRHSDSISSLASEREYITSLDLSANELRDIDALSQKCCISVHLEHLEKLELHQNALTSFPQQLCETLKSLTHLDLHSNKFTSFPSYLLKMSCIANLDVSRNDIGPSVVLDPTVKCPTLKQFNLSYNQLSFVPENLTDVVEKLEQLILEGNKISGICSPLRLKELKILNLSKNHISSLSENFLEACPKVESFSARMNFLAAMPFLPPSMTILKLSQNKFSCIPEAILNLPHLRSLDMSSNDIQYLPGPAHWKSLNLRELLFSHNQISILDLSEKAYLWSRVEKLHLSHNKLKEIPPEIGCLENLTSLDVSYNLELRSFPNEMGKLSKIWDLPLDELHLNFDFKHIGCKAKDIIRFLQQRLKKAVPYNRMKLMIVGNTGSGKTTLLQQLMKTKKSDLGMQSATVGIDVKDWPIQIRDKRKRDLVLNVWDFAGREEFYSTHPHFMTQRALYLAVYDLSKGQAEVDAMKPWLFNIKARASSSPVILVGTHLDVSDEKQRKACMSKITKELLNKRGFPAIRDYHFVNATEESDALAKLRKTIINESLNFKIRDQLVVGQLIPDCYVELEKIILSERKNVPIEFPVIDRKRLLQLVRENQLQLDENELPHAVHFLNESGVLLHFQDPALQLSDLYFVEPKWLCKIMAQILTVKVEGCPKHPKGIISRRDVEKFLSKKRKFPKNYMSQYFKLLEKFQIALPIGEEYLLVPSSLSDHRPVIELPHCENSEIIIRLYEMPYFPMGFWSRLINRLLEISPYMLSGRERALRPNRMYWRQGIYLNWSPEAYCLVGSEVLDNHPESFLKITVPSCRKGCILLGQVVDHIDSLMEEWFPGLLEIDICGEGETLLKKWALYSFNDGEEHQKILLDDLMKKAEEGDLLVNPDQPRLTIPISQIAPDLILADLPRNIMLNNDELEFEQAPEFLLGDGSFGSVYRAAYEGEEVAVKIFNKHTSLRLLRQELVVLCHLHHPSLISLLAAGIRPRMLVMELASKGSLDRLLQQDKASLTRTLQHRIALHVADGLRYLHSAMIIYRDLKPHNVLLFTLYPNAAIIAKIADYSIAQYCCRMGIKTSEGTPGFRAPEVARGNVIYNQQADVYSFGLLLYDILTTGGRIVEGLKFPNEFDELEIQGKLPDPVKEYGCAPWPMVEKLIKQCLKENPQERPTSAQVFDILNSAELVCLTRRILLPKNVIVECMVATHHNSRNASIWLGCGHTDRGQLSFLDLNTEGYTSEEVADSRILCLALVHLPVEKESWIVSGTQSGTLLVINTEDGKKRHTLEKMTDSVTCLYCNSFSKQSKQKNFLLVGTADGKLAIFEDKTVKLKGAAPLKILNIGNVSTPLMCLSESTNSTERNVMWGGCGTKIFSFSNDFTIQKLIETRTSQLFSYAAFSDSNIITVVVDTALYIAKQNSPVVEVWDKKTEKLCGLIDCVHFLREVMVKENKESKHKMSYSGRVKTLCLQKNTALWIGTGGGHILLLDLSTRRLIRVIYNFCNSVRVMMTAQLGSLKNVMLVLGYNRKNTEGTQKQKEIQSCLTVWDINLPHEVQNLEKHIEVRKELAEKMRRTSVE

For orientation: Ki means the dissociation constant of the complex between target and ligand, obtained from inhibition or displacement. A high value points to lower affinity. As to `CCNc1nc(Nc2cnn(C(C)(C)c3nncn3C)c2Cl)ncc1C(F)(F)F` [Example 23, N2-(5-chloro-1-(2-(4-methyl-4H-1,2,4-triazol-3-yl)propan-2-yl)-1H-pyrazol-4-yl)-N4-ethyl-5-(trifluoromethyl)pyrimidine-2,4-diamine], the affinity corresponds to a Ki of 1.1 nM.
The figure for `CNc1nc(Nc2cnn(CC(C)c3ccn(C)n3)c2C)ncc1C(F)(F)F` (stereo not drawn) [Example 24, N4-methyl-N2-(5-methyl-1-(2-(1-methyl-1H-pyrazol-3-yl)propyl)-1H-pyrazol-4-yl)-5-(trifluoromethyl)pyrimidine-2,4-diamine] is 16.6 nM; for `CNc1nc(Nc2cnn(CC(C)c3ccn(C)n3)c2C)ncc1C(F)(F)F` (stereo not drawn) [Example 25, N4-methyl-N2-(5-methyl-1-(2-(1-methyl-1H-pyrazol-3-yl)propyl)-1H-pyrazol-4-yl)-5-(trifluoromethyl)pyrimidine-2,4-diamine] it is 108 nM; for `CNc1nc(Nc2cn(C(C)(C)c3ncccn3)nc2C)ncc1C(F)(F)F` [Example 26, N4-methyl-N2-(3-methyl-1-(2-(pyrimidin-2-yl)propan-2-yl)-1H-pyrazol-4-yl)-5-(trifluoromethyl)pyrimidine-2,4-diamine] it is 4.3 nM.
For `CCNc1nc(Nc2cn(C(C)(C)c3nnc(C)o3)nc2Cl)ncc1C(F)(F)F` [Example 27, N2-(3-chloro-1-(2-(5-methyl-1,3,4-oxadiazol-2-yl)propan-2-yl)-1H-pyrazol-4-yl)-N4-ethyl-5-(trifluoromethyl)pyrimidine-2,4-diamine], the Ki is 3.7 nM.
For the compound `CCNc1nc(Nc2cn(C(C)(C)c3nnc(CC)o3)nc2C)ncc1C(F)(F)F` [Example 29, N4-ethyl-N2-(1-(2-(5-ethyl-1,3,4-oxadiazol-2-yl)propan-2-yl)-3-methyl-1H-pyrazol-4-yl)-5-(trifluoromethyl)pyrimidine-2,4-diamine], the Ki was determined as 6.5 nM.
Under `CCNc1nc(Nc2cn(C(C)(C)c3ncn(C(C)C)n3)nc2C)ncc1C(F)(F)F` [Example 30, N4-ethyl-N2-(1-(2-(1-isopropyl-1H-1,2,4-triazol-3-yl)propan-2-yl)-3-methyl-1H-pyrazol-4-yl)-5-(trifluoromethyl)pyrimidine-2,4-diamine] stands 0.6 nM; under `CCNc1nc(Nc2cn(C(C)(C)c3nncn3C)nc2Cl)ncc1C(F)(F)F` [Example 31, N2-(3-chloro-1-(2-(4-methyl-4H-1,2,4-triazol-3-yl)propan-2-yl)-1H-pyrazol-4-yl)-N4-ethyl-5-(trifluoromethyl)pyrimidine-2,4-diamine], 42.5 nM; under `CCNc1nc(Nc2cn(C(C)(C)c3ncn(C)n3)nc2Cl)ncc1C(F)(F)F` [Example 32, N2-(3-chloro-1-(2-(1-methyl-1H-1,2,4-triazol-3-yl)propan-2-yl)-1H-pyrazol-4-yl)-N4-ethyl-5-(trifluoromethyl)pyrimidine-2,4-diamine], 0.5 nM.
The figure for `CNc1nc(Nc2cnn(CCc3ccn(C)n3)c2C)ncc1C(F)(F)F` [Example 33, N4-methyl-N2-(5-methyl-1-(2-(1-methyl-1H-pyrazol-3-yl)ethyl)-1H-pyrazol-4-yl)-5-(trifluoromethyl)pyrimidine-2,4-diamine] is 2 nM; for `CNc1nc(Nc2cn(CCc3ccn(C)n3)nc2C)ncc1C(F)(F)F` [Example 36, N4-methyl-N2-(3-methyl-1-(2-(1-methyl-1H-pyrazol-3-yl)ethyl)-1H-pyrazol-4-yl)-5-(trifluoromethyl)pyrimidine-2,4-diamine] it is 3.7 nM.
With `CNc1nc(Nc2cnn(C3CCOC[C@@H]3F)c2C)ncc1C(F)(F)F` (stereo partly drawn) [Example 40, N2-(1-((3R)-3-fluorotetrahydro-2H-pyran-4-yl)-5-methyl-1H-pyrazol-4-yl)-N4-methyl-5-(trifluoromethyl)pyrimidine-2,4-diamine], affinity was put at a Ki of 0.6 nM.
The figure for `CNc1nc(Nc2cn(C(C)(C)CC#N)nc2C)ncc1C(F)(F)F` [Example 41, 3-methyl-3-(3-methyl-4-((4-(methylamino)-5-(trifluoromethyl)pyrimidin-2-yl)amino)-1H-pyrazol-1-yl)butanenitrile] is 12.8 nM; for `CCC(C#N)Cn1cc(Nc2ncc(C(F)(F)F)c(NC)n2)c(C)n1` (stereo not drawn) [Example 42, 2-((3-methyl-4-((4-(methylamino)-5-(trifluoromethyl)pyrimidin-2-yl)amino)-1H-pyrazol-1-yl)methyl)butanenitrile] it is 4.1 nM.
Compound `CCNc1nc(Nc2cc(C(C)(C)C#N)nn2C)ncc1C(F)(F)F` [Example 44, 2-(5-((4-(ethylamino)-5-(trifluoromethyl)pyrimidin-2-yl)amino)-1-methyl-1H-pyrazol-3-yl)-2-methylpropanenitrile] displayed a Ki of 0.7 nM.
The figure for `CNc1nc(Nc2cc(C(C)(C)C#N)nn2C)ncc1C(F)(F)F` [Example 45, 2-methyl-2-(1-methyl-5-((4-(methylamino)-5-(trifluoromethyl)pyrimidin-2-yl)amino)-1H-pyrazol-3-yl)propanenitrile] is 8.6 nM; for `Cc1nn(C(C)(C)C#N)cc1Nc1ncc(C#N)c(NC2CC2)n1` [Example 46, 2-((1-(2-cyanopropan-2-yl)-3-methyl-1H-pyrazol-4-yl)amino)-4-(cyclopropylamino)pyrimidine-5-carbonitrile] it is 3 nM.
Under `CCNc1nc(Nc2cc(C#N)nn2C)ncc1C(F)(F)F` [Example 50, 5-((4-(ethylamino)-5-(trifluoromethyl)pyrimidin-2-yl)amino)-1-methyl-1H-pyrazole-3-carbonitrile] stands 24.5 nM.
